Literature values as cited in US20140366440A1, “METHOD FOR PRODUCING CLONE SEEDLINGS” (OKAYAMA PREFECTURE, priority 2009, published 2014).

Tests used:
[1] = tested on: callus of a tobacco plant; details: cited from earlier work
[2] = tested on: calluses of a Russell prairie gentian; details: medium containing glutathione; cited from earlier work
calluses of a rice plant = details: medium containing glutathione; cited from earlier work
[3] = tested on: Eucalyptus globulus elite tree; details: in the presence of auxin; Sotelo and Monza, Agrociencia (2007); cited from earlier work

N[C@@H](CCC(=O)N[C@@H](CS)C(=O)NCC(=O)O)C(=O)O [glutathione]
forming an adventitious bud from callus ([1]; addition of glutathione of 1 mM): inhibits
redifferentiation of callus [2]: promotes redifferentiation
redifferentiation of callus (calluses of a rice plant): promotes redifferentiation

auxin
rooting rate [3]: ≤ 25%

CCCCS(=N)(=O)CCC(N)C(=O)O (centres unmarked) [buthionine sulfoximine (BSO), buthionine sulfoximine, reference compound]
number of differentiation of adventitious buds per callus ([1]; addition of BSO): remarkably increases
